Reference: US9512140B2, “(Thieno[2,3-b][1,5]benzoxazepin-4-yl)piperazin-1-yl compounds as dual activity H1 inverse agonists/5-HT2A antagonists” (priority 2011, dated 2016)
Counter-ions that a name gives are not always drawn.

Assays:
Adrenergic alpha1B = Adrenergic alpha1B (Homo sapiens, UniProt P35368); test: Adrenergic alpha1B binding
Text: (§1) Further, the compounds of the invention may be tested in binding assays and functional activity assays by well known methods for other physiologically important receptors such as, but not limited to, the hERO channel, other serotonin receptors (specifically 5-HT1B, 5-HT1D, receptors, lack of agonist activity at 5-HT2B receptors, 5-HT2C, 5-HT5, 5-HT6, and 5-HT7 receptors), dopaminergic receptors (specifically D1, D2, and D3), GABAA receptors, adrenergic receptors and monoamine transporters.

5-HT1D = 5-HT1D (Homo sapiens, UniProt P28221); test: 5-HT1D binding
Text: as §1

[1] = target: T1, recombinant 5-HT2A receptor (human) (Homo sapiens, UniProt P28223); test: 5-HT2A competition binding assay ([3H]-Ketanserin, SPA)
T1 construct: expressed in transfected cells; host or cells: AV-12 (membranes)
Method: [^3H]-Ketanserin binding experiments are carried out in SPA 96-well format. Membranes used in this assay are prepared from AV-12 cells stably expressing recombinant 5-HT2A receptor (human). The incubation is initiated by the addition of a mixture of WGA YSi SPA beads (1 mg/well, Perkin Elmer (MA, USA), RPNQ0011) and 2 μg membranes to assay buffer (67 mM Tris, 0.5 mM EDTA; pH 7.6) containing 3.1 nM [^3H]-Ketanserin and varying concentrations of the test compound (10 point concentration response curves). Non-specific binding is determined in the presence of 20 μM 1-(1-Naphthyl) piperazine. Samples are incubated for 4 hr. at room temperature (22° C.) and then read in a Microbeta Trilux.
Curves are evaluated using a 4-parameter logistic nonlinear equation to obtain the concentration of competitor causing 50% inhibition of radioligand binding (IC50). Equilibrium dissociation constants (Ki) are calculated according to the equation Ki=IC50/(1+L/Kd), where L equals the concentration of radioligand used in the experiment and Kd equals the equilibrium dissociation constant of the radioligand for the receptor, determined from standard saturation analysis or homologous competition experiments. Reported values for Ki, where n values are indicated, are shown as geometric mean±the standard error of the mean (SEM), with the number of replicate determinations indicated by n. […]

Adrenergic alpha2A = Adrenergic alpha2A (Homo sapiens, UniProt P08913); test: Adrenergic alpha2A binding
Text: as §1

Plasma clearance, rat = format: in vivo; details: male, Sprague Dawley, 1 mg/kg, intravenous, 1 mL/kg of 1.0 mg/mL
Method: Male Sprague Dawley rats (body weight range 250-320 g) with indwelling femoral arterial cannulae are obtained from Charles River, Wilmington, Mass. 01887, USA. Test compound is administered intravenously in solution (1 mL/kg) in 20% Captisol® in 22.5 mM phosphate buffer, pH 2, at a final drug concentration of 1.0 mg/mL (free base equivalents). Blood samples are obtained using the indwelling cannula over 24 hr. Samples of plasma are obtained by centrifugation and stored frozen (−20° C.), or on dry ice, prior to analysis. Frozen plasma samples are thawed to room temperature for bioanalysis of concentrations of test compound. A related internal standard compound in acetonitrile/methanol (1:1, v/v) is added to all samples of plasma (1:1, v/v). The samples are centrifuged to remove precipitated protein prior to analysis. The supernatants are analysed by injection and rapid gradient elution on a Javelin Betasil C18 column (20×2.1 mm cartridge, Mobile phase A: Water/1 M NH4HCO3, 2000:10 v/v, Mobile Phase B: MeOH/1 M NH4HCO3, 2000:10 v/v). The eluted analytes are detected by LC-MS-MS analysis using a Sciex API 4000 triple quadrupole mass spectrometer. Concentrations of compound are determined from standards prepared and analysed under identical conditions. Clearance is calculated using non-compartmental analysis in Watson 7.4, Thermo Fisher Scientific, Inc.

Rats = test: Rat sleep studies, coadministration with citalopram; format: in vivo; details: coadministered with citalopram
Adrenergic alpha1A = Adrenergic alpha1A (Homo sapiens, UniProt P35348); test: Adrenergic alpha1A binding
Text: as §1

5-HT2A receptor = target: T2, 5-HT2A receptor (Mus musculus, UniProt P35363); test: Inhibition of DOI induced headshake activity; format: in vivo; details: 10 mg/kg PO, mice, DOI 3 mg/kg, read-out: inhibition of DOI induced headshake response
T2 construct: from tissue; host or cells: living C57BL/6J mice
Method: (see for example Bartoszyk G D, van Amsterdam C, Böttcher H, Seyfried C A. EMD 281014, a new selective serotonin 5-HT2A receptor antagonist. Eur J Pharmacol. 2003 473: 229-230.) Briefly, male C57BL/6J mice (20-25 g, Charles River) are housed in standard housing conditions (32 mice in a large IVC cage, 07.00 to 19.00 light phase, constant temperature (19-23° C.) and humidity (50%+/−10), ad lib food and water). Mice received either vehicle (0.25% Methyl cellulose), DOI (3 mg/kg in saline) or test compound at 10 mg/kg PO plus DOI (3 mg/kg in saline). Test compounds are individually evaluated in groups of four per experiment with n=4 for each compound, together with vehicle and DOI+vehicle (n=8). After a test compound pre-treatment time of 60 min. the mice receive either vehicle (saline) or 3 mg/kg DOI dosed subcutaneously, and are then placed into clear perspex observation chambers. […] The data is analyzed using an ANOVA and post-hoc Dunnet's Test. The compound of example 2 is tested essentially as described and is found to inhibit the DOI induced headshake response at 100% at 10 mg/kg.

Chain of Adrenergic alpha2A (P08913 whole entry): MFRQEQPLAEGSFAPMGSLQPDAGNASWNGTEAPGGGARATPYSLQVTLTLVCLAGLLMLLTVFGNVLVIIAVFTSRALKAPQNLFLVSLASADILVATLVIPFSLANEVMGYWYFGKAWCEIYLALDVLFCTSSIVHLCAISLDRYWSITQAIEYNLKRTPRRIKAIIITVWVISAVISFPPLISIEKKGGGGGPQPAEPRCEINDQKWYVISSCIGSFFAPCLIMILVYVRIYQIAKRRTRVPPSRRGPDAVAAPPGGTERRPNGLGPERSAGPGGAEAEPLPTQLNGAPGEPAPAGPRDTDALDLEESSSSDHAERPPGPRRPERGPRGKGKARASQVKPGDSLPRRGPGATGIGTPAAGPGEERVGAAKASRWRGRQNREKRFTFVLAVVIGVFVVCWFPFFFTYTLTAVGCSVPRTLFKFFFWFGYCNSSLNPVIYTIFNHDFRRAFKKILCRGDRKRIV
T1 sequence (P28223 whole entry): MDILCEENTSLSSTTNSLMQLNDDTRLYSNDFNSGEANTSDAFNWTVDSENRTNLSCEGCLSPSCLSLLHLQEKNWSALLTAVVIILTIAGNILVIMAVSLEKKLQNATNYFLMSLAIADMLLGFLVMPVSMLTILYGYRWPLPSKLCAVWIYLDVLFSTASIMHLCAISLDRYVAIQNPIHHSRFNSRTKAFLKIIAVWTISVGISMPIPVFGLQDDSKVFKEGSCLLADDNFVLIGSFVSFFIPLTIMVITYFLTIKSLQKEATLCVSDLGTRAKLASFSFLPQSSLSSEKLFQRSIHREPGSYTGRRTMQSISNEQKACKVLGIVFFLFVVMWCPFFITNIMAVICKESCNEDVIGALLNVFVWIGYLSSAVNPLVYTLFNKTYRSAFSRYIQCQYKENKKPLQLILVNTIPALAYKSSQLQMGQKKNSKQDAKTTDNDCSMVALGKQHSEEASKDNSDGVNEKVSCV
Chain of Adrenergic alpha1A (P35348 whole entry): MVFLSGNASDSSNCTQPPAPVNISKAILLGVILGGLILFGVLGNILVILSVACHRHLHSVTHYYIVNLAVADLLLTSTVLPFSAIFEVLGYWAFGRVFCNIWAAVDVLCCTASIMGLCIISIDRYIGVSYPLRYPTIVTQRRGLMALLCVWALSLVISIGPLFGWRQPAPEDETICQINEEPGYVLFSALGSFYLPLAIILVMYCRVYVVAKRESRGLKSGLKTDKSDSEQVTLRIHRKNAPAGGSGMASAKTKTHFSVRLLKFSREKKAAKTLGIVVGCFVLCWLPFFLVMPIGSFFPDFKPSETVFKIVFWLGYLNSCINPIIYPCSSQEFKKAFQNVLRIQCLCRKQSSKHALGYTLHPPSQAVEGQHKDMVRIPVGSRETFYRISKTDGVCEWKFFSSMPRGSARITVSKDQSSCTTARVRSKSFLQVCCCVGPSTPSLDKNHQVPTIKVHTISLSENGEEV
Chain of Adrenergic alpha1B (P35368 whole entry): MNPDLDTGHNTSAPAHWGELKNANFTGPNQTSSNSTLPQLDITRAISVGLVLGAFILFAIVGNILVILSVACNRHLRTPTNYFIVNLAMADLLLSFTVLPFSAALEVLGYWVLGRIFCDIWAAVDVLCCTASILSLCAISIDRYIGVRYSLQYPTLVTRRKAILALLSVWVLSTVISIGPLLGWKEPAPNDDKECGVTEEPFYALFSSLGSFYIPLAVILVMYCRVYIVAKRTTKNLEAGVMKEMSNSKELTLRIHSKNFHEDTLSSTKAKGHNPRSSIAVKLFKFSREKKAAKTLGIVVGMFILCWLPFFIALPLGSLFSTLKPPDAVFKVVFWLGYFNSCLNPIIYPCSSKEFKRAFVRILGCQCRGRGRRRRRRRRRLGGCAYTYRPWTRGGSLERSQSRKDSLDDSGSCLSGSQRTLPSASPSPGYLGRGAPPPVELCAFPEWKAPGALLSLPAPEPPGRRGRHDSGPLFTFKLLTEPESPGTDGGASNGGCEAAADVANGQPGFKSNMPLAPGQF
Chain of 5-HT1D (P28221 whole entry, species assumed): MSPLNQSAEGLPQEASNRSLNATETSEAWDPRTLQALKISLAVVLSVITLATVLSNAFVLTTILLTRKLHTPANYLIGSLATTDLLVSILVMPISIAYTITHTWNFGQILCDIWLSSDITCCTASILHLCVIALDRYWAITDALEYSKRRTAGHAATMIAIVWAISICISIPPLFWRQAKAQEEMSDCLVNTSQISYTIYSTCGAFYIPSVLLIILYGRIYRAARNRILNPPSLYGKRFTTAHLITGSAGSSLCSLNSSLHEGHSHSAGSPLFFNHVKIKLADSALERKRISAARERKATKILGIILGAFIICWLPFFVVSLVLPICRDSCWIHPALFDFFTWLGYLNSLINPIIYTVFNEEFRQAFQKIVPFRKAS
T2 sequence (P35363 whole entry): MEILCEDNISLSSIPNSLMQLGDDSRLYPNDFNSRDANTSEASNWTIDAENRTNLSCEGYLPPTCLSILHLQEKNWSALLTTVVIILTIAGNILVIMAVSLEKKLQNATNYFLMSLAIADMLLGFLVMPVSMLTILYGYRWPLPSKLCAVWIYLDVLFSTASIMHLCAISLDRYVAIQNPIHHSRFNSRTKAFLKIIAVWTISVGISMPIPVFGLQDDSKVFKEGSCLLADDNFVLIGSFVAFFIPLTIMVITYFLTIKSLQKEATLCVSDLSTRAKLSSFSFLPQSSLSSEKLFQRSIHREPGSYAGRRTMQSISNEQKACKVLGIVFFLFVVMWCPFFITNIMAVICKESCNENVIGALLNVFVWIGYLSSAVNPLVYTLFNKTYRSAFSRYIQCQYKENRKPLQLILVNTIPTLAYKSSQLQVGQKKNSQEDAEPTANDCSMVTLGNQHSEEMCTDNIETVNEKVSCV

For `Cc1ccc2c(c1)Oc1sc(C)cc1C(N1CCN(CC(C)(C)C(=O)O)CC1)=N2` [Example 2, 3-[4-(2,8-Dimethylthieno[2,3-b][1,5]benzoxazepin-4-yl)piperazin-1-yl]-2,2-dimethyl-propanoic acid dihydrochloride], the Ki (Adrenergic alpha1B) was > 16.2 µM, the Ki (5-HT1D) was > 3.98 µM and the Ki [1] was 0.0113 µM. For the same compound, the Ki (Adrenergic alpha2A) was > 9.02 µM, the clearance (Plasma clearance, rat) was 27 mL/min/kg and the “NREM sleep on coadministration with citalopram” value (Rats) was “significantly increase NREM sleep at significantly lower doses”. For the same compound, the Ki (Adrenergic alpha1A) was > 10.5 µM and the inhibition at 10 mg/kg (5-HT2A receptor) was 100%.
